Experimental findings from patent publication US20040039053A1, “Use of(-) (3-halomethylphenoxy) (4-halophenyl) acetic acid derivatives for treatment of insulin resistance, type 2 diabetes, hyperlipidemia and hyperuricemia” (priority 2000, published 2004) are described below.

Like-named read-outs stand apart in the source and are kept apart here.

In one data set the target is T1, CYP1A2 (Homo sapiens, UniProt P05177).
T1 sequence (P05177 1-516): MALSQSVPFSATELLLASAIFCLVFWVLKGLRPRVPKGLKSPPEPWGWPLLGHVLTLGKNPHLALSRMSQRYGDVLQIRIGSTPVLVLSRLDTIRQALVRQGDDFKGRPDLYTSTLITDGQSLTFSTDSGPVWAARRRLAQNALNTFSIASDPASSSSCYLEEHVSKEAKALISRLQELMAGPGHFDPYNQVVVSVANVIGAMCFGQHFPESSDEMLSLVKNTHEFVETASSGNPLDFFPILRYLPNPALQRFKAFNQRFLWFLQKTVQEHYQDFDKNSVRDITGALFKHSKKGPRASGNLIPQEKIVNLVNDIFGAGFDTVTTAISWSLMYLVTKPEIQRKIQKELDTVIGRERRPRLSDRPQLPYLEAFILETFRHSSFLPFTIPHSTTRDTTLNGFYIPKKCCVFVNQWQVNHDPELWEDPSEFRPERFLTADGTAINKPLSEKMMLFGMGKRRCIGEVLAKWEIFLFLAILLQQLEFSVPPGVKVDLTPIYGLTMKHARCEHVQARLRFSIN
The conditions noted are these: both, 30 min.

A further data set concerns the target CYP2C19 (Homo sapiens, UniProt P33261). The data set can be described thus: Cytochrome P450 isoform inhibition in human hepatic microsomes, S-mephenytoin (Example 18). The format is in vitro ADME.
The next data set has as its target CYP3A4 (Homo sapiens, UniProt P08684). The data set can be described thus: in vitro. The conditions noted are these: both, microsomes.

Sequence of CYP2C19 (P33261 whole entry, canonical isoform): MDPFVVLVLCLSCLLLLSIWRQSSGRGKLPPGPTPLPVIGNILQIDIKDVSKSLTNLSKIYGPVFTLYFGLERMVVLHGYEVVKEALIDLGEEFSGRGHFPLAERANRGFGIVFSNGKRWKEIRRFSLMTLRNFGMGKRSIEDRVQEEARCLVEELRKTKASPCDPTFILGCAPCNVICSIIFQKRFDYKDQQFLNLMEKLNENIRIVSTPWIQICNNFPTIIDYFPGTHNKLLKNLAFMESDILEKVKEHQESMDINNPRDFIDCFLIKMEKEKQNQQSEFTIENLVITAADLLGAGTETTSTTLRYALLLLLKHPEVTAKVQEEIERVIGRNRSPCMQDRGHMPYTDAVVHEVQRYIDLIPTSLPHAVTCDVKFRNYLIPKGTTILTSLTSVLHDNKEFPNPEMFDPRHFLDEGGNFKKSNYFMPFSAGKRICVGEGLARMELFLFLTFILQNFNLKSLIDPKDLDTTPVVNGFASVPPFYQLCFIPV
Sequence of CYP3A4 (P08684 whole entry): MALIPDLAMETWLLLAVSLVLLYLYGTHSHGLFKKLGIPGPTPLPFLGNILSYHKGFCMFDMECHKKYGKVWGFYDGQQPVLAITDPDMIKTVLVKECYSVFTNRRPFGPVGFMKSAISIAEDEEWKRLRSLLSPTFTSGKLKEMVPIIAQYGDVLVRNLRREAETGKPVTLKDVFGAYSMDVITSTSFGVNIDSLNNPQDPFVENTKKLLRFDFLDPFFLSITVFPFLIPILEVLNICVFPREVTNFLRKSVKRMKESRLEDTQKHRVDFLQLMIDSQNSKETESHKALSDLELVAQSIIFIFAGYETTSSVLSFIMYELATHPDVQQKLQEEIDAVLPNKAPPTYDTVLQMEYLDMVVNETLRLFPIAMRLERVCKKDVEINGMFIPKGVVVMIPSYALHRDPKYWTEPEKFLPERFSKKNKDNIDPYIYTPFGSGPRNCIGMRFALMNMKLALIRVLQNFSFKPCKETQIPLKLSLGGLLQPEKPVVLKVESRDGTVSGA

What is called inhibition is the percentage by which the read-out fell short of the control. By IC50 is commonly meant the concentration at which inhibition is half-maximal. As to `O=C(O)C(Oc1cccc(C(F)(F)F)c1)c1ccc(Cl)cc1` (single isomer, unassigned; (-)) [(−) halofenic acid, (−) 4-chlorophenyl-(3-trifluoromethylphenoxy)-acetic acid], the “Phenacetin AC Production” value at CYP1A2 (0.33 μM) is 116 ± 2 pmol/mg protein/min; at CYP1A2 (1 μM), 118 ± 2 pmol/mg protein/min; at CYP1A2 (3.3 μM), 119 ± 2 pmol/mg protein/min; at CYP1A2 (10 μM) it was 119 ± 2 pmol/mg protein/min; on CYP1A2 (33.3 μM), 119 ± 2 pmol/mg protein/min. Further, the inhibition at 30 min, 0.33 μM against CYP2C19 (both sexes, human, pooled human hepatic microsomes, probe S-mephenytoin 50 μM, test article 0.33 μM) was found to be 4%. The molecule also came in with an inhibition at 30 min, 1 μM against CYP2C19 (both sexes, human, pooled human hepatic microsomes, probe S-mephenytoin 50 μM, test article 1.0 μM) of 5%. For the same molecule, at CYP2C19 (both sexes, human, pooled human hepatic microsomes, probe S-mephenytoin 50 μM, test article 3.3 μM), the inhibition at 30 min, 3.3 μM came out at 15%. On CYP2C19 (both sexes, human, pooled human hepatic microsomes, probe S-mephenytoin 50 μM, test article 10 μM), this molecule gave an inhibition at 30 min, 10 μM of 23%. For the same molecule, at CYP2C19 (both sexes, human, pooled human hepatic microsomes, probe S-mephenytoin 50 μM, test article 33.3 μM), the inhibition at 30 min, 33.3 μM came out at 43%. Besides, on CYP2C19 (human hepatic microsomes 1 mg/mL, 50 μM S-mephenytoin, 30 minutes, read-out: IC50, 4-hydroxymephenytoin production (CYP2C19)), the IC50 was over 33.3 µM. For the same molecule, at CYP3A4, the inhibition at 10 min, 0.33 µM is 1.5%. Moreover, on CYP3A4, the inhibition at 10 min, 1 µM is 0%. Moreover, at CYP3A4, the inhibition at 10 min, 3.3 µM amounted to 1.8%. At CYP3A4, this molecule yielded an inhibition at 10 min, 10 µM of 1.3%. In addition, at CYP3A4, the inhibition at 10 min, 33.3 µM is 1.5%.
